Details of data set [1]: method as in Patterson et al. 2009. Conditions: persons ≥ 60 years of age, ref Patterson et al. 2009, cited from earlier work; for NHANES (2003–2004) P95: 95th percentile; for NHANES (2003–2004) P50: 50th percentile, LODs variable.
Data set [2] can be described thus: Serum lipid-adjusted dioxin congener concentrations in former chlorophenol workers, repeated blood sampling 2004–2005 and 2010. It counts as in vivo, human. Conditions: for Mean percent change: change in concentration from 2004–2005 to 2010; for Concentration 2004–2005, Mean ± SD / Concentration 2010, Mean ± SD: serum, 56 Midland study participants. The source says: Participant selection. The selection strategy called for drawing a stratified random sample of workers included in the previous 2004–2005 blood draw. […] We used the 95th percentile of age-specific U.S. population concentrations for each congener identified in the National Health and Nutrition Examination Survey (NHANES; [Centers for Disease Control and Prevention 2009]) to define the upper ends of the background ranges. Nine strata were formed based jointly on previous serum levels of TCDD (high, > 50 ppt; moderate, 10–50 ppt; and background, < 10 ppt), representing workers in predominantly TCP processes, and OCDD (high, > 5,000 ppt; moderate, 1,000–5,000 ppt; and background, < 1,000 ppt), representing those with experience in PCP processes. We attempted to enroll participants representing each of these strata. Invitations to participate were sent to our target sample of 72 workers who were selected based on these congener concentration criteria.
Questionnaire and data collection methods. We conducted the serum analyses in 2010 using the same protocol, procedures, and laboratory as in the 2004–2005 blood draw ([Collins et al. 2006]). The serum samples were tested for 7 polychlorinated dibenzo-p-dioxins (PCDDs), 10 polychlorinated dibenzofurans (PCDFs), and 15 polychlorinated biphenyls (PCBs). […] The study was conducted pursuant to approval and oversight by the Dow Human Subjects Review Board in Midland, Michigan. All study participants gave informed consent.
On the day of examination in the fall of 2010, participants donated blood and completed the same questionnaire originally administered during the 2004–2005 sampling effort ([Collins et al. 2006]). The questionnaire addressed dietary and smoking habits, work history, and recent changes in weight. Height, weight, and blood pressure were also measured. Diagnosis of chloracne during occupational exposure was extracted from workplace medical records; the criteria for chloracne diagnosis were defined previously by [Bond et al. (1990)].

Details of data set [3]: method as in van den Berg et al. 2006. To be noted: WHO toxic equivalency factor; ref van den Berg et al. 2006; cited from earlier work.
For data set [4] the following is noted: cited from earlier work; for Half-life of elimination, Rohde et al. 1999 (mean) / Half-life of elimination, Flesch-Janys et al. 1996 (median): from change in concentration; for Half-life of elimination, Rohde et al. 1999 (mean): n = 6, ages 41–73 years, ref Rohde et al. 1999; for Half-life of elimination, Flesch-Janys et al. 1996 (median): n = 26 to 48, mean age 48.7 years at first sampling, ref Flesch-Janys et al. 1996.

Data set [5] is described as follows: Elimination half-lives from serial serum samples, first-order one-compartment model. It is filed as in vivo. Conditions: human, serum (lipid-adjusted), other: occupational exposure, 56 participants. The source says:
Elimination rates. Changes in measured concentrations of persistent compounds such as PCDDs and PCDFs reflect not only intrinsic elimination rates but also any ongoing intakes of the compounds and changes in the volume of distribution, in this case, the volume of body lipids ([Bartell 2012]; [Ritter et al. 2009], [2011]). If current body concentrations are high relative to steady-state concentrations associated with current background intake rates, apparent elimination rates will approximate intrinsic elimination rates ([Bartell 2012]; [van der Molen et al. 1998]). If, on the other hand, background intakes are high compared with current body concentrations, the estimated apparent elimination rate will be lower than the intrinsic rates. Robust data regarding ongoing congener intake rates were not available, so the elimination rates were first calculated based on net rate of change of the congeners, which reflects both intrinsic elimination rates and unmeasured intake rates, termed “apparent” elimination rates.
We calculated apparent elimination rates in two ways: based on changes in concentration, or based on changes in estimated body amounts. For the former approach, concentrations of congener i in 2005 and 2010 (Ci,2005 and Ci,2010, respectively) and time between sampling dates (Δt), were used to estimate the elimination rate (ki):
Concentrations of lipophilic compounds may change in response to changes in the volume of distribution (increase or decrease in amount of body fat), even in the absence of any elimination or additional exposure ([Charlier et al. 2002]; [Chevrier et al. 2000]; [Hue et al. 2006]; [Imbeault et al. 2001]; [Pelletier et al. 2002]; [Walford et al. 1999]). Thus, we also estimated the rate of change in estimated whole body mass of each congener. For the approach based on changes in estimated mass of dioxins in the body, the congener concentrations in 2005 and 2010 were replaced by the estimated amounts, A, of congener i in the body:
where PBF is percent body fat estimated using an age-, sex-, and body mass index (BMI)-specific formula, which has been validated in adults over a range of ages including those of the participants in this study ([Deurenberg et al. 1991]), BW is body weight in kilograms, and Ci is the serum lipid–adjusted concentration of congener i. This approach assumes that the compound is distributed solely in body lipid. The resulting amount, Ai, calculated for each sampling time and congener was used in Equation 1 in place of concentration for calculating the apparent whole-body mass-based elimination rate.
Elimination half-lives (t1/2) corresponding to the estimated elimination rates, (k) were calculated for some comparisons with previous literature:
Inclusion of plausible background exposures. […] Changes in concentration or estimated mass of compound in the body reflect the net effect of both elimination and any ongoing exposures between sampling time points. Under a first-order model, the amount of compound in the body in 2010 (A2010) is a function of both the intrinsic elimination rate, kint, and the ongoing exposure rate between sampling time points:
where D is the yearly dose rate in nanograms per year, and A2005 is the starting amount in 2005. As described by [Ritter et al. (2011)], intrinsic elimination rates can be estimated if ongoing exposure levels are known or can be estimated.

[6] abbreviates: based on change in estimated mass of the congener in the body, read-out: Elimination half-lives [median (P25–P75)], Apparent, mass based (converted).
[7] abbreviates: based on change in serum lipid concentration, read-out: Elimination half-lives [median (P25–P75)], Apparent, concentration based (converted).
The mark [8] stands for this setting: change in body mass after accounting for plausible background intake (Table 3), read-out: Elimination half-lives [median (P25–P75)], Estimated intrinsic (converted).

Read-outs that look alike come from different tables or passages of the source.

Consider `Clc1cc2c(cc1Cl)Oc1c(Cl)c(Cl)c(Cl)c(Cl)c1O2` [Congener 14HxCDD, 1,2,3,4,7,8-hexachlorodibenzo-p-dioxin], for which the “NHANES (2003–2004) P95” value in data set [1] was 15.1 pg/g lipid. For the same molecule, in data set [2], the Mean percent change result is listed as “–34%”; the “Concentration 2004–2005, Mean ± SD” value is listed as 16.0 ± 11.9 pg/g lipid; the “Concentration 2010, Mean ± SD” value is 10.5 ± 7.9 pg/g lipid. Further, the TEF in data set [3] is 0.1. Also, in data set [4], the “Half-life of elimination, Rohde et al. 1999 (mean)” value (shortened to “Half-life of elimination … (mean)”) is reported as 13.9 years and the “Half-life of elimination, Flesch-Janys et al. 1996 (median)” value (“Half-life of elimination … (median)” for short) was 8.4 years. Also, the half-life in data set [5] (setting [6]) was 3000 days. The half-life in data set [5] (setting [7]) is 2960 days. The half-life in data set [5] (setting [8]) was 2560 days.
On to `Clc1cc2c(c(Cl)c1Cl)Oc1c(cc(Cl)c(Cl)c1Cl)O2` [Congener 19HxCDD, 1,2,3,7,8,9-hexachlorodibenzo-p-dioxin], for which, in data set [1], the “NHANES (2003–2004) P95” value was 16.2 pg/g lipid. Moreover, in data set [2], the Mean percent change entry is given as “–42%”; the “Concentration 2004–2005, Mean ± SD” value is given as 19.4 ± 14.5 pg/g lipid; the “Concentration 2010, Mean ± SD” value is listed as 11.3 ± 9.8 pg/g lipid. In data set [3], the TEF is 0.1. Further, in data set [4], the “Half-life of elimination … (mean)” value is 7.7 years and the “Half-life of elimination … (median)” value is listed as 4.9 years. The half-life in data set [5] (setting [6]) was 2480 days. In addition, the half-life in data set [5] (setting [7]) was 2260 days. The half-life in data set [5] (setting [8]) was 2300 days.
`Clc1c(Cl)c(Cl)c2c(c1Cl)Oc1c(Cl)c(Cl)c(Cl)c(Cl)c1O2` [OCDD, octachlorodibenzo-p-dioxin]: in data set [1], the “NHANES (2003–2004) P50” value is 370 pg/g lipid and the “NHANES (2003–2004) P95” value was 1,180 pg/g lipid. Further, in data set [2], the Mean percent change entry is given as “–41%”; the “Concentration 2004–2005, Mean ± SD” value is 1919.6 ± 2121.0 pg/g lipid; the “Concentration 2010, Mean ± SD” value was 1124.7 ± 1232.0 pg/g lipid. In data set [3], the TEF is 0.0003. In data set [4], the “Half-life of elimination … (mean)” value is 8.7 years and the “Half-life of elimination … (median)” value is 6.7 years. Further, the half-life in data set [5] (setting [6]) is 3030 days. Further, the half-life in data set [5] (setting [7]) is 2850 days. Moreover, in data set [5] (setting [8]), the half-life is 2670 days.
Turning to `Clc1cc2c(c(Cl)c1Cl)Oc1cc(Cl)c(Cl)c(Cl)c1O2` [Congener 16HxCDD, 1,2,3,6,7,8-hexachlorodibenzo-p-dioxin], in data set [1], the “NHANES (2003–2004) P50” value is 47.3 pg/g lipid and the “NHANES (2003–2004) P95” value was 104 pg/g lipid. Moreover, in data set [2], the Mean percent change entry is given as “–31%”; the “Concentration 2004–2005, Mean ± SD” value is 136.6 ± 99.9 pg/g lipid; the “Concentration 2010, Mean ± SD” value is recorded as 94.3 ± 70.8 pg/g lipid. Moreover, in data set [3], the TEF was 0.1. In data set [4], the “Half-life of elimination … (mean)” value is recorded as 11.6 years and the “Half-life of elimination … (median)” value was 13.1 years. The half-life in data set [5] (setting [6]) was 4020 days. Further, the half-life in data set [5] (setting [7]) is 3690 days. In data set [5] (setting [8]), the half-life was 3290 days.
For `Clc1cc2c(c(Cl)c1Cl)Oc1c(Cl)c(Cl)c(Cl)c(Cl)c1O2` [HpCDD, 1,2,3,4,7,8,9-heptachlorodibenzo-p-dioxin], in data set [2], the Mean percent change result is recorded as “–46%”; the “Concentration 2004–2005, Mean ± SD” value was 159.9 ± 161.8 pg/g lipid; the “Concentration 2010, Mean ± SD” value is on record as 87.1 ± 83.3 pg/g lipid. In data set [2] (present study), the “2004–2005 median concentration” value was 88.6 pg/g lipid. Besides, the TEF in data set [3] is reported as 0.01. In addition, in data set [4], the “Half-life of elimination … (mean)” value is given as 4.3 years and the “Half-life of elimination … (median)” value is recorded as 3.7 years. In data set [4] (ref Flesch-Janys et al. (1996)), the “Median concentration at first sampling time point” value was 641 pg/g lipid. The half-life in data set [5] (setting [6]) was 2780 days. Also, the half-life in data set [5] (setting [7]) was 2560 days. The half-life in data set [5] (setting [8]) was 2450 days.
For `Clc1cc2c(cc1Cl)Oc1cc(Cl)c(Cl)cc1O2` [TCDD, 2,3,7,8-tetrachlorodibenzo-p-dioxin], the “NHANES (2003–2004) P95” value in data set [1] is 7.9 pg/g lipid. Also, in data set [2], the Mean percent change entry was “–39%”; the “Concentration 2004–2005, Mean ± SD” value worked out at 21.1 ± 30.0 pg/g lipid; the “Concentration 2010, Mean ± SD” value came out at 12.9 ± 19.6 pg/g lipid. Also, the TEF in data set [3] is listed as 1. In addition, in data set [4], the “Half-life of elimination … (mean)” value is 8.7 years and the “Half-life of elimination … (median)” value is given as 7.2 years. Also, the half-life in data set [5] (setting [6]) is 2560 days. The half-life in data set [5] (setting [7]) was 2370 days. In addition, the half-life in data set [5] (setting [8]) was 2370 days.
For the molecule `Clc1cccc2c1Oc1c(Cl)c(Cl)c(Cl)c(Cl)c1O2` [PeCDD, pentachlorodibenzo-p-dioxin], in data set [1], the “NHANES (2003–2004) P50” value was 8.0 pg/g lipid and the “NHANES (2003–2004) P95” value was 17.7 pg/g lipid. In data set [2], the Mean percent change result is on record as “–28%”; the “Concentration 2004–2005, Mean ± SD” value was 19.7 ± 11.3 pg/g lipid; the “Concentration 2010, Mean ± SD” value is recorded as 14.2 ± 8.6 pg/g lipid. In data set [3], the TEF is recorded as 1. Further, in data set [4], the “Half-life of elimination … (mean)” value is on record as 13.9 years and the “Half-life of elimination … (median)” value is 15.7 years. For the same molecule, the half-life in data set [5] (setting [6]) is 4240 days. The half-life in data set [5] (setting [7]) was 3910 days. Further, the half-life in data set [5] (setting [8]) was 3910 days.

The record behind these values is paper PMC3552814, “Elimination Rates of Dioxin Congeners in Former Chlorophenol Workers from Midland, Michigan” (Environmental Health Perspectives, 2012).
